Compound in one assay: NC(=O)CCCCC1CCSS1 [lipoamide]
The assay is described as follows: thermal stability z-score vs DMSO; higher = more thermally stabilized by treatment. Conditions: HeLa, lipoamide concentration 100 µM. How it is done: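 Cellular thermal proteome profiling in HeLa cells. Cells were treated with 100 µM lipoamide for 1 h, with or without 1 mM arsenate for a further 1 h, then heated to ten temperatures (37-66.3 °C), and soluble protein was quantified by TMT mass spectrometry relative to 0.1% DMSO controls. The thermal stability score (sum of log2 fold changes minus the abundance score) was transformed to a z-score; mean of n = 3 experiments.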

Compound in a further assay: O=[As]([O-])(O)O.[K+] [potassium arsenate]
The description is as above. Particulars: HeLa; arsenate concentration 1 mM. The procedure: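 Cellular thermal proteome profiling in HeLa cells treated with 1 mM arsenate for 1 h (DMSO pretreatment), heated to ten temperatures (37-66.3 °C). Soluble protein was quantified by TMT mass spectrometry relative to DMSO controls; the thermal stability score was transformed to a z-score; mean of n = 3 experiments.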

Setting [1] is: arsenate co-treatment: 1 mM arsenate 1 h.
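Also: each temperature applied for 3 min, abundance score taken as mean log2 fold change at the two lowest temperatures, z-score obtained by mean subtraction and division by SD.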

UniProt P35573, sequence (P35573 whole entry): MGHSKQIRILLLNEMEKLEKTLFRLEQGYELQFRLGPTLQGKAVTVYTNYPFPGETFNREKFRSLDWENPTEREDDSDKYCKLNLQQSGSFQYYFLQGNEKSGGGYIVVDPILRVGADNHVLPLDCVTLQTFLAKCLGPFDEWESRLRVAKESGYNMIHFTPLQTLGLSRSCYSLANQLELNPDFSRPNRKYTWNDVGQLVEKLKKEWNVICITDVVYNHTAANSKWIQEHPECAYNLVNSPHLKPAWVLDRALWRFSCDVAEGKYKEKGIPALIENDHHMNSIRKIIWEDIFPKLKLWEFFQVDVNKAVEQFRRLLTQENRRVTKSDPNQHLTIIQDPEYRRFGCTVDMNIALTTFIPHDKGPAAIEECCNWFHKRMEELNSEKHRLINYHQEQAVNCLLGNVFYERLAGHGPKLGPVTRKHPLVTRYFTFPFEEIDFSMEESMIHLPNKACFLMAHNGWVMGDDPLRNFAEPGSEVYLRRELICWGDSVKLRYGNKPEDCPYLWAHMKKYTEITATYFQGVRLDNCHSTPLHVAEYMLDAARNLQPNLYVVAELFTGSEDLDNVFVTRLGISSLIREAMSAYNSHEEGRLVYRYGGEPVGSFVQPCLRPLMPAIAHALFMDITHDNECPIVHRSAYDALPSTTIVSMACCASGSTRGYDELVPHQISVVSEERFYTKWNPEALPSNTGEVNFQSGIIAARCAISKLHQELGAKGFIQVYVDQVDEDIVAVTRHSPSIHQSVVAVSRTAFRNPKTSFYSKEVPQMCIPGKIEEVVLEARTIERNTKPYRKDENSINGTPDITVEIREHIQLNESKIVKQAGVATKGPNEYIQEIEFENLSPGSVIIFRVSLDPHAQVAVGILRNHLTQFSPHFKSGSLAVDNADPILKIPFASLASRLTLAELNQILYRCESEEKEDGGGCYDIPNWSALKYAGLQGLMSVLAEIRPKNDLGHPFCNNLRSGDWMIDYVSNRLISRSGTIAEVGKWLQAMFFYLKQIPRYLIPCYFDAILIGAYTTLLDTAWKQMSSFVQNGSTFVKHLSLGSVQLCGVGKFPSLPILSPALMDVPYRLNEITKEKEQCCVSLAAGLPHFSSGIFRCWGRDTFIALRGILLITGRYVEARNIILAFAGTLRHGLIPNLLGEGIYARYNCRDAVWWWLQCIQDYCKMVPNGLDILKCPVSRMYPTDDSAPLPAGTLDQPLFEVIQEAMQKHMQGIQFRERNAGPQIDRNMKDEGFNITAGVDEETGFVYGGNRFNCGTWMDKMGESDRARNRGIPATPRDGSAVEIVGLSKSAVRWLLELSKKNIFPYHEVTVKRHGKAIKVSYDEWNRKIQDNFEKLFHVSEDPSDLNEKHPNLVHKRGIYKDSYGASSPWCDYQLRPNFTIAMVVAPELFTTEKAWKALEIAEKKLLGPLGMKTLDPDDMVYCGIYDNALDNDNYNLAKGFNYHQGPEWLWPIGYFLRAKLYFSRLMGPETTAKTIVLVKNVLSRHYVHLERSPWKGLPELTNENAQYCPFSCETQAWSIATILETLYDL
UniProt Q9UHK6, sequence (Q9UHK6 whole entry): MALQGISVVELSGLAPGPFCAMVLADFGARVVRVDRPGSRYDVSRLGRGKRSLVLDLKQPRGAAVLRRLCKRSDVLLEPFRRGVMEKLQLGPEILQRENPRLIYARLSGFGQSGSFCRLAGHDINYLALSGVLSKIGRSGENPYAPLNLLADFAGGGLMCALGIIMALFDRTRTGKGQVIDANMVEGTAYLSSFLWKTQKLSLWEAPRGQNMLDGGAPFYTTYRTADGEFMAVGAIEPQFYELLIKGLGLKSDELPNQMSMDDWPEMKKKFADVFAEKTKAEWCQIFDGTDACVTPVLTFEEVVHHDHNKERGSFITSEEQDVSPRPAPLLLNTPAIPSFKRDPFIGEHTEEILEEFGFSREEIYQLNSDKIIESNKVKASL
UniProt Q9UQ80, sequence (Q9UQ80 whole entry): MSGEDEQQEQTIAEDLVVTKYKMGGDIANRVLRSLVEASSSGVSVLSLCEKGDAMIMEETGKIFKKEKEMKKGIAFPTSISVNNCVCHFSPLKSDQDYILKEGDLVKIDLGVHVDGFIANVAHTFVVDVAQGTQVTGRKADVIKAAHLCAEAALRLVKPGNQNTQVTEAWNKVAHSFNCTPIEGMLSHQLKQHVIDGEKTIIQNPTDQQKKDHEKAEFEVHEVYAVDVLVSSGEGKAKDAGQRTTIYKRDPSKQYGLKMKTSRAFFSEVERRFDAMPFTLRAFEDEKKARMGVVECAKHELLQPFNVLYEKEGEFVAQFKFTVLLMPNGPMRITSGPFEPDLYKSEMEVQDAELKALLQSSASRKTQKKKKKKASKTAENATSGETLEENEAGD
UniProt P29692, sequence (P29692 whole entry): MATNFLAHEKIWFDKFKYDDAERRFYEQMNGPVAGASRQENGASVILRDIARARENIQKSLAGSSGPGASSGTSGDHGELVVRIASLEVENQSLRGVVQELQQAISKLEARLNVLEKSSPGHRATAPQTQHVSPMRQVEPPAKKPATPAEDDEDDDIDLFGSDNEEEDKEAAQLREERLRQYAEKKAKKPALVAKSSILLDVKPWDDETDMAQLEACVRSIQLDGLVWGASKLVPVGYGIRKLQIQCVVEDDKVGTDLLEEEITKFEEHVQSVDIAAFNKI
UniProt Q96DT7, sequence (Q96DT7 whole entry): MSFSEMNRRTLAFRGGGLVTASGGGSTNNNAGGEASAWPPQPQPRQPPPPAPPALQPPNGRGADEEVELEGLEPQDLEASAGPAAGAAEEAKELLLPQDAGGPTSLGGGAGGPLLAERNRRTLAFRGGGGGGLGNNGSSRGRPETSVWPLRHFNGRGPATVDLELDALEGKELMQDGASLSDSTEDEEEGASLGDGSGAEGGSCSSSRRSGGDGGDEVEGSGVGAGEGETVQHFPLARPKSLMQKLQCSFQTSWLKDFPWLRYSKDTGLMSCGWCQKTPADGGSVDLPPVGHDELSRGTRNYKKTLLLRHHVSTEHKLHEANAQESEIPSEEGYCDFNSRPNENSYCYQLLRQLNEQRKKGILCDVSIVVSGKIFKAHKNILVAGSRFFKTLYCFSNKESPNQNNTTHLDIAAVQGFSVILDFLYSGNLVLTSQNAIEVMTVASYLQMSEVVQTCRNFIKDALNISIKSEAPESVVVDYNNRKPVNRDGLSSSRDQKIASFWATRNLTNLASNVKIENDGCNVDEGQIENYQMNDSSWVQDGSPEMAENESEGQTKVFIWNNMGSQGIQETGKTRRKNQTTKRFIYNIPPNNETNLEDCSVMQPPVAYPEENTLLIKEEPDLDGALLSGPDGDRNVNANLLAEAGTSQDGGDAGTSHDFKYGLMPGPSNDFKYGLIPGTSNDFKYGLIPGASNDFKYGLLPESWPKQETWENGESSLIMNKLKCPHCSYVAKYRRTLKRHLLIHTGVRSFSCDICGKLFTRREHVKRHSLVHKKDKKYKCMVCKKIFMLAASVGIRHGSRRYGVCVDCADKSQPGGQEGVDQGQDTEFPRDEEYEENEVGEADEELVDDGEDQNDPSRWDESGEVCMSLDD
UniProt Q8NCC3, sequence (Q8NCC3 whole entry): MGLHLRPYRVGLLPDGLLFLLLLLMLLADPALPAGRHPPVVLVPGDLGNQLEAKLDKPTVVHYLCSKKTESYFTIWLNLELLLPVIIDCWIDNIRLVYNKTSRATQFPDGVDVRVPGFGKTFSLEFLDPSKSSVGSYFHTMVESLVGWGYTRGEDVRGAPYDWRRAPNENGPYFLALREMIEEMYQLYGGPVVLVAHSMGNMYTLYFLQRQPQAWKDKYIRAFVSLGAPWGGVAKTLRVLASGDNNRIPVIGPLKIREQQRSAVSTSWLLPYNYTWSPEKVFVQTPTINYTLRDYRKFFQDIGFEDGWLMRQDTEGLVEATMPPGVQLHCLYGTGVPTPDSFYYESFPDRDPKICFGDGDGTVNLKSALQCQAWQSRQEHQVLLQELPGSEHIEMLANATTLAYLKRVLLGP
UniProt Q9HC98, sequence (Q9HC98 whole entry): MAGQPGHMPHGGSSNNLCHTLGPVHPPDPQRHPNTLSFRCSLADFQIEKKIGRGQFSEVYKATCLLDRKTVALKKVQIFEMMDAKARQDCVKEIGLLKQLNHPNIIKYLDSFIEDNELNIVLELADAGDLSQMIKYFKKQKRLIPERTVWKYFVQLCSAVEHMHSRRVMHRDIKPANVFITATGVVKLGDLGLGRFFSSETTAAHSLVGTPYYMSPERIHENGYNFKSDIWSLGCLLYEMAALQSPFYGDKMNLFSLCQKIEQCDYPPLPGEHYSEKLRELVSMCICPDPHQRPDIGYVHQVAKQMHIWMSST
UniProt O75815, sequence (O75815 whole entry): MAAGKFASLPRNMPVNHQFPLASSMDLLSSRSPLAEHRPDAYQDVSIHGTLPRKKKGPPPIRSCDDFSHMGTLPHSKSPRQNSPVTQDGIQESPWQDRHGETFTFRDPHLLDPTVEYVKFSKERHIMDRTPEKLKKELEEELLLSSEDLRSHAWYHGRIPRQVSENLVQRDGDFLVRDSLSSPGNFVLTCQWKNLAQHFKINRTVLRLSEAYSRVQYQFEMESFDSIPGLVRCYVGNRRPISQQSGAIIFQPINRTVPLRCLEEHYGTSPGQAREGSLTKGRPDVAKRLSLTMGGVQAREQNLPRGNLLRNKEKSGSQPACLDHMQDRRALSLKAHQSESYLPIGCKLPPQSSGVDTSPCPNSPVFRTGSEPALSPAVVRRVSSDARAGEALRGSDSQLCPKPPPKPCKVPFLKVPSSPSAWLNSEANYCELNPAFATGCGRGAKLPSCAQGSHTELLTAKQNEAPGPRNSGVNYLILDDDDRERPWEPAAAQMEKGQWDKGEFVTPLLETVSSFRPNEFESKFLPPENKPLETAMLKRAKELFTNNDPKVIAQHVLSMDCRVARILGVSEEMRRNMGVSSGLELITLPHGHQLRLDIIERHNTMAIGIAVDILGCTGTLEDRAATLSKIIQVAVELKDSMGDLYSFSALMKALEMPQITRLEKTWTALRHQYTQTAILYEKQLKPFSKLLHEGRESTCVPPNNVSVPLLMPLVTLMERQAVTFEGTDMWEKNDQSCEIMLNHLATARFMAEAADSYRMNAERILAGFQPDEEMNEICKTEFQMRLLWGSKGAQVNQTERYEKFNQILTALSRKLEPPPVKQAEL

DPH5 (UniProt Q9H2P9): the results for the thermal stability z-score with lipoamide (setting [1]), in the assay with lipoamide (arsenate co-treatment: none) and with potassium arsenate were 0.634, 1.89 and -0.179, respectively.

Regarding PGAM5 (UniProt Q96HS1), the thermal stability z-score with lipoamide (setting [1]) was found to be 0.0875; with lipoamide (arsenate co-treatment: none), 0.709; in the assay with potassium arsenate, 0.701.

Take MAP4 (UniProt P27816): the thermal stability z-score was 0.0996 in the assay with lipoamide (setting [1]), 0.243 with lipoamide (arsenate co-treatment: none) and -0.384 with potassium arsenate.

In the case of ZBTB10 (UniProt Q96DT7), the values for the thermal stability z-score in the assay with lipoamide (setting [1]), with lipoamide (arsenate co-treatment: none) and in the assay with potassium arsenate were 0.00974, -0.093 and -0.307, respectively.

In the case of SRP68 (UniProt Q9UHB9), the figures for the thermal stability z-score in the assay with lipoamide (setting [1]), with lipoamide (arsenate co-treatment: none) and in the assay with potassium arsenate were -0.606, -0.27 and 0.344, respectively.

On to HSD17B7 (UniProt P56937), for which the thermal stability z-score stood at 0.202 with lipoamide (setting [1]), 0.543 with lipoamide (arsenate co-treatment: none) and 1.82 with potassium arsenate.

SGMS2 (UniProt Q8NHU3): the thermal stability z-score with lipoamide (setting [1]) is -1.39; in the assay with lipoamide (arsenate co-treatment: none), -0.337; in the assay with potassium arsenate it was -1.22.

Take MAPK7 (UniProt Q13164): the figures for the thermal stability z-score with lipoamide (setting [1]), in the assay with lipoamide (arsenate co-treatment: none) and with potassium arsenate were 0.0307, 0.141 and 0.334, respectively.

Take ARHGAP27 (UniProt Q6ZUM4): the values for the thermal stability z-score with lipoamide (setting [1]), with lipoamide (arsenate co-treatment: none) and with potassium arsenate were -0.103, -0.156 and -0.309, respectively.

Regarding RACGAP1 (UniProt Q9H0H5), the thermal stability z-score is -0.198 with lipoamide (setting [1]), -0.0575 in the assay with lipoamide (arsenate co-treatment: none) and -0.148 with potassium arsenate.

For the target EEF1D (UniProt P29692), the thermal stability z-score with lipoamide (setting [1]) was 0.303; with lipoamide (arsenate co-treatment: none), 0.257; in the assay with potassium arsenate, -0.0726.

As for RBM17 (UniProt Q96I25), the figures for the thermal stability z-score with lipoamide (setting [1]), with lipoamide (arsenate co-treatment: none) and in the assay with potassium arsenate were 0.528, 0.441 and 0.243, respectively.

For DNAJC1 (UniProt Q96KC8), the thermal stability z-score was -0.436 with lipoamide (setting [1]), -0.516 with lipoamide (arsenate co-treatment: none) and -0.725 with potassium arsenate.

With FAM8A1 (UniProt Q9UBU6), the thermal stability z-score with lipoamide (setting [1]) is -0.425; in the assay with lipoamide (arsenate co-treatment: none) it was -0.579; with potassium arsenate it was -0.315.

Take LLPH (UniProt Q9BRT6): the figures for the thermal stability z-score with lipoamide (setting [1]), with lipoamide (arsenate co-treatment: none) and with potassium arsenate were -1.21, -1.15 and -2.48, respectively.

Turning to CFL1 (UniProt P23528), the thermal stability z-score in the assay with lipoamide (setting [1]) was 0.501; in the assay with lipoamide (arsenate co-treatment: none), 0.449; with potassium arsenate, -0.362.

Regarding NCKAP5L (UniProt Q9HCH0), the thermal stability z-score is -0.000592 with lipoamide (setting [1]), 0.244 in the assay with lipoamide (arsenate co-treatment: none) and 0.264 in the assay with potassium arsenate.

With RPL8 (UniProt P62917), the results for the thermal stability z-score with lipoamide (setting [1]), with lipoamide (arsenate co-treatment: none) and with potassium arsenate were 0.0892, -0.22 and -1.07, respectively.

Regarding EYA4 (UniProt O95677), the thermal stability z-score in the assay with lipoamide (setting [1]) is 0.0211; with lipoamide (arsenate co-treatment: none) it was -0.116; with potassium arsenate, 0.168.

Consider GADD45GIP1 (UniProt Q8TAE8), for which the results for the thermal stability z-score in the assay with lipoamide (setting [1]), with lipoamide (arsenate co-treatment: none) and in the assay with potassium arsenate were 0.954, 0.379 and 0.432, respectively.

With BCAR3 (UniProt O75815), the thermal stability z-score was -0.0123 with lipoamide (setting [1]), -0.0689 with lipoamide (arsenate co-treatment: none) and -0.106 in the assay with potassium arsenate.

In the case of MCM6 (UniProt Q14566), the values for the thermal stability z-score with lipoamide (setting [1]), with lipoamide (arsenate co-treatment: none) and in the assay with potassium arsenate were -0.81, -0.253 and -0.919, respectively.

As for PRG4 (UniProt Q92954), the results for the thermal stability z-score in the assay with lipoamide (setting [1]), in the assay with lipoamide (arsenate co-treatment: none) and with potassium arsenate were -2.2, -2.18 and 0.248, respectively.

Consider PPP1R2 (UniProt P41236), for which the figures for the thermal stability z-score with lipoamide (setting [1]), with lipoamide (arsenate co-treatment: none) and with potassium arsenate were 0.658, 0.619 and 0.183, respectively.

TES (UniProt Q9UGI8): the thermal stability z-score is 0.0136 with lipoamide (setting [1]), -0.287 in the assay with lipoamide (arsenate co-treatment: none) and -4.89 in the assay with potassium arsenate.

For the target AMACR (UniProt Q9UHK6), the thermal stability z-score in the assay with lipoamide (setting [1]) is 0.683; in the assay with lipoamide (arsenate co-treatment: none) it was -0.138; with potassium arsenate it was 0.504.

For the target TBCC (UniProt Q15814), the thermal stability z-score in the assay with lipoamide (setting [1]) is -0.35; with lipoamide (arsenate co-treatment: none), -0.196; in the assay with potassium arsenate it was -0.00724.

On to AIF1L (UniProt Q9BQI0), for which the thermal stability z-score with lipoamide (setting [1]) is -0.218; with lipoamide (arsenate co-treatment: none) it was -0.305; with potassium arsenate, -0.374.

Consider NEK6 (UniProt Q9HC98), for which the thermal stability z-score with lipoamide (setting [1]) was -0.181; in the assay with lipoamide (arsenate co-treatment: none), -0.266; with potassium arsenate, -0.209.

With TUBB (UniProt P07437), the figures for the thermal stability z-score with lipoamide (setting [1]), with lipoamide (arsenate co-treatment: none) and with potassium arsenate were 0.525, -0.284 and -0.425, respectively.

Regarding LAMA1 (UniProt P25391), the thermal stability z-score with lipoamide (setting [1]) is -2; with lipoamide (arsenate co-treatment: none), -1.82; with potassium arsenate, 1.13.

Turning to SDF4 (UniProt Q9BRK5), the thermal stability z-score is -1.8 with lipoamide (setting [1]), -1.61 with lipoamide (arsenate co-treatment: none) and 0.389 in the assay with potassium arsenate.

For PA2G4 (UniProt Q9UQ80), the thermal stability z-score with lipoamide (setting [1]) turned out to be 0.127; with lipoamide (arsenate co-treatment: none), 0.183; in the assay with potassium arsenate, 1.4.

As for RNF113A (UniProt O15541), the results for the thermal stability z-score with lipoamide (setting [1]), in the assay with lipoamide (arsenate co-treatment: none) and with potassium arsenate were -0.642, -0.0196 and -0.554, respectively.

With EZR (UniProt P15311), the thermal stability z-score was 1.01 with lipoamide (setting [1]), 0.661 in the assay with lipoamide (arsenate co-treatment: none) and -0.481 in the assay with potassium arsenate.

Consider NUP160 (UniProt Q12769), for which the values for the thermal stability z-score in the assay with lipoamide (setting [1]), with lipoamide (arsenate co-treatment: none) and with potassium arsenate were 0.198, 0.123 and 1.01, respectively.

PRMT5 (UniProt O14744): the thermal stability z-score is 0.459 in the assay with lipoamide (setting [1]), 0.231 with lipoamide (arsenate co-treatment: none) and -0.408 with potassium arsenate.

Take PHAX (UniProt Q9H814): the thermal stability z-score with lipoamide (setting [1]) came out at 0.329; with lipoamide (arsenate co-treatment: none), 0.358; with potassium arsenate, 0.321.

As to AGL (UniProt P35573), the thermal stability z-score was found to be 0.414 with lipoamide (setting [1]), 0.398 in the assay with lipoamide (arsenate co-treatment: none) and 0.0621 with potassium arsenate.

In the case of GRPEL1 (UniProt Q9HAV7), the thermal stability z-score with lipoamide (setting [1]) is -0.953; with lipoamide (arsenate co-treatment: none), 0.246; with potassium arsenate it was -0.236.

As to PLA2G15 (UniProt Q8NCC3), the thermal stability z-score was -0.718 with lipoamide (setting [1]), -0.487 with lipoamide (arsenate co-treatment: none) and 0.38 with potassium arsenate.

MAMLD1 (UniProt Q13495): the thermal stability z-score with lipoamide (setting [1]) was determined as 0.0249; with lipoamide (arsenate co-treatment: none), 0.146; with potassium arsenate, 0.345.

(Values after the supplement of paper PMC12463676, “Small-molecule dissolution of stress granules by redox modulation benefits ALS models” (Nature Chemical Biology, 2025).)
